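Following 48 hours of exposure in 96-well plates, responses at five concentrations were used to interpolate endpoints linearly. TGI denotes the concentration required for complete inhibition of growth.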
Assays:
Test in all cases: NCI-60 cell line screen, 48 h
SF-295 CNS = system: SF-295 CNS
SK-MEL-2 melanoma = system: SK-MEL-2 melanoma
EKVX NSCLC = system: EKVX NSCLC
SK-MEL-28 melanoma = system: SK-MEL-28 melanoma
SF-268 CNS = system: SF-268 CNS
LOX IMVI melanoma = system: LOX IMVI melanoma
CCRF-CEM leukemia = system: CCRF-CEM leukemia
OVCAR-8 ovarian = system: OVCAR-8 ovarian

Row | SMILES | TGI (SF-295 CNS) [µM] | TGI (SK-MEL-2 melanoma) [µM] | TGI (EKVX NSCLC) [µM] | TGI (SK-MEL-28 melanoma) [µM] | TGI (SF-268 CNS) [µM] | TGI (LOX IMVI melanoma) [µM] | TGI (CCRF-CEM leukemia) [µM] | TGI (OVCAR-8 ovarian) [µM]
1 | CCCCCCCCCCCCCCCCOCC(CC(F)(F)P(=O)(O)O)OC(C)=O (stereo not drawn) | > 50 | > 50 | > 50 | > 50 | > 50 | – | – | –
2 | C/C(=N\N=C(N)N)c1c(C(=O)OCCCCCCOC(=O)c2nc3sccn3c2/C(C)=N/N=C(N)N)nc2sccn12 | – | > 100 | > 100 | > 100 | > 100 | > 100 | 63.2 | > 100
3 | N#Cc1c(=O)c2cccnc2n2c1[nH]c1ccccc12 | > 100 | > 100 | > 100 | > 100 | > 100 | > 100 | > 100 | > 100
4 | O=[N+]([O-])c1ccc2nc3ccc([N+](=O)[O-])cn3c2c1 | > 100 | > 100 | > 100 | > 100 | > 100 | > 100 | > 100 | > 100
5 | O=C1c2ccccc2S(=O)(=O)c2ccccc21 | > 100 | > 100 | > 100 | > 100 | > 100 | > 100 | > 100 | > 100
6 | O=C1NC(=O)/C(=C\c2ccncc2)N1 | > 100 | > 100 | > 100 | > 100 | – | > 100 | – | > 100
7 | CSc1c(C(C)=O)c(O)n(-c2ccc(Cl)cc2)c(=O)c1C#N | – | > 100 | > 100 | > 100 | > 100 | > 100 | 54.3 | > 100
8 | O=c1oc2ccccc2cc1-c1nc2ccc([N+](=O)[O-])cc2o1 | > 100 | > 100 | > 100 | > 100 | > 100 | > 100 | > 100 | > 100
9 | [N-]=[N+]=NC1(c2ccccc2)C(=O)Nc2ccccc2C1=O (stereo not drawn) | > 100 | 67.3 | – | > 100 | > 100 | > 100 | > 100 | –
10 | COc1ccc(/C=N/Nc2[nH]c(=S)nc3[nH]ncc23)cc1 | > 100 | > 100 | > 100 | > 100 | > 100 | > 100 | > 100 | > 100
11 | Oc1ccc(-c2c3c(nc4c2CCc2ccc(Br)cc2-4)-c2cc(Br)ccc2CC3)cc1 | 31.7 | 35 | 46.1 | 38.9 | 39.9 | – | – | –
12 | O=C1CCC2(CC1)Cc1ccccc1C2O (stereo not drawn) | > 100 | > 100 | > 100 | > 100 | > 100 | > 100 | > 100 | > 100
13 | COc1ccc(CNc2nc(NCc3ccc(OC)cc3)nc(NC3CCCCC3)n2)cc1 | 4.14 | 7.86 | 8.5 | > 100 | 6.5 | 20.2 | – | 7.17
14 | CCOC(=O)c1cc(-c2ccc(OC)c(OC)c2)c[nH]1 | > 10 | > 10 | > 10 | > 10 | > 10 | > 10 | > 10 | > 10
15 | CCOC(=O)CCC(NC(=O)OCc1ccccc1)C(=O)NNC(=O)OC(C)(C)C (stereo not drawn) | > 100 | > 100 | > 100 | > 100 | > 100 | > 100 | > 100 | > 100
16 | Oc1c2cccc1Cc1cccc3c1OCCOCCOCCOCCOc1c(cccc1Cc1cccc(c1O)C3)C2 | > 100 | > 100 | > 100 | > 100 | > 100 | > 100 | > 100 | > 100
17 | O=C1c2ccccc2NC2C(O)c3ccccc3N12 (stereo not drawn) | > 100 | > 100 | > 100 | – | > 100 | > 100 | 54.6 | > 100
18 | O=C1CSC2(CC(/C=C/C=C/c3ccccc3)=NN2c2cccc(S(=O)(=O)O)c2)N1c1nc2ccccc2s1 (stereo not drawn) | – | > 100 | > 100 | > 100 | – | 42.2 | 58.4 | > 100
19 | NC(N)=N/N=C(\c1ccc(Cl)cc1)C1CC1 | 48.3 | 34.5 | 83 | 38.2 | > 100 | 30 | – | 40.4
20 | CC(=O)Oc1ccc2cc(Oc3ccc(Cl)cc3)c(=O)oc2c1 | 99 | – | > 100 | > 100 | > 100 | > 100 | – | 54
21 | CCOC(=O)C1C/C(C)=C(/C)SCCCS1 (stereo not drawn) | > 100 | > 100 | > 100 | > 100 | > 100 | > 100 | – | > 100
22 | CCCCc1ccc2[n+](c1)C(C(=O)OCC)=PC2 (stereo not drawn) | > 100 | – | > 100 | > 100 | > 100 | – | > 100 | > 100
23 | O=c1c(Cc2ccc(Cl)cc2)nnc2sc(-c3ccc([N+](=O)[O-])cc3)nn12 | > 100 | 33.7 | 64.4 | – | > 100 | > 100 | 55.8 | > 100
24 | CC1(C)CC(=O)C(/C=N/c2nc(-c3ccc(Br)cc3)cs2)=C(O)C1 | > 100 | 48.4 | > 100 | > 100 | – | 52.4 | – | > 100
25 | CCCCCCCCCCCCC(=O)NCC(=O)NC(Cc1ccccc1)C(=O)Oc1ccc([N+](=O)[O-])cc1 (stereo not drawn) | > 100 | > 100 | > 100 | – | > 100 | > 100 | 68.7 | > 100
26 | C=CCc1c(O)c2ccccc2[nH]c1=O | > 100 | – | > 100 | > 100 | – | > 100 | > 100 | > 100
27 | CN(C)c1ccc(C(=NNC(=O)c2cc3ccccc3[nH]2)c2ccc(N(C)C)cc2)cc1 | 5.52 | 3.97 | > 100 | – | 5.31 | > 100 | > 25.2 | > 100
28 | COc1cc(C2SCC(=O)N2NC(=O)c2ccc(NC(C)=O)cc2)cc(OC)c1OC (stereo not drawn) | > 100 | > 100 | > 100 | > 100 | > 100 | – | – | > 100
